In article PMC11012124, “Synthesis of Novel Triazine-Based Chalcones and 8,9-dihydro-7H-pyrimido[4,5-b][1,4]diazepines as Potential Leads in the Search of Anticancer, Antibacterial and Antifungal Agents” (International Journal of Molecular Sciences, 2024):
Converted amounts (≈) assume the structure as drawn.

What was measured:
60 cancer cell lines = assay: NCI-60 one-dose screen (10 μM); assay type: cell-based; conditions: Homo sapiens; one dose of 10 μM, mean over 60 cancer cell lines; read-out: Mean Growth Percent (MGP)
Excerpt: Additionally, the mean of the growth percentages (MGP) of each compound against all the 60 cancer cell lines is also reported, which is used as one of the selection criteria to continue with tests at five concentration doses.

[1] = Hemolytic activity, spectrophotometric; assay type: cell-based, human; conditions: human, human red blood cells (huRBC), 5% hematocrit, 200 μg/mL, 37 °C
[2] = test system: N. gonorrhoeae ATCC 49226; assay: MIC on GC agar plates; assay type: cell-based, Neisseria gonorrhoeae; conditions: Neisseria gonorrhoeae, ATCC49226, read-out: MIC
Method: An initial screening for bacterial inhibition was performed by the agar diffusion method. […] DMSO and TSB were included as negative controls. Gentamicin and trimethoprim sulfamethoxazole were included as a positive control for growth inhibition. Derivatives showing growth inhibition were tested at least twice before being selected for the microdilution test. For N. gonorrhoeae, the agar diffusion method was also used for screening with some modifications. […] Penicillin and tetracycline were used as controls. […] Briefly, GC agar supplemented with 1% isovitalex was prepared with increasing concentrations of the new compounds and inoculated with 10 µL of a bacterial suspension (1 × 10^4 CFU). The lowest concentration of the compound that inhibited bacterial growth was determined as the MIC. Bacterial growth was examined and verified using the oxidase test. The experiments were performed in duplicate in at least two independent assays.

[3] = test system: M. tuberculosis ATCC 27294; assay: Antitubercular broth microdilution MIC; assay type: cell-based; conditions: Mycobacterium tuberculosis; M. tuberculosis ATCC 27294 (H37Rv); read-out: Minimum inhibitory concentration (MIC)
[4] = test system: Candida albicans (ATCC 10231); assay: Antifungal broth microdilution (CLSI); assay type: cell-based; conditions: ATCC10231; Ca: Candida albicans
Method: (§1) Several of the obtained triazine derivatives were evaluated against sensitive fungal species comprising of two yeasts (Candida albicans (ATCC 10231), Cryptococcus neoformans (ATCC 32264)), three dermatophytes (Microsporum gypseum (CCC 115), Trichophyton rubrum (CCC 134-2000), Trichophyton mentagrophytes (CCC 202-2000)), and three Aspergillus fungi ((A. [NT] 26934), A. niger (ATCC 9029), and A. flavus (ATCC 9170)). […] Broth microdilution techniques were performed in 96-well microplates according to the Reference Method for Broth Dilution Antifungal Susceptibility Testing of Yeasts, document M27-A3 [86] and of Filamentous Fungi […]-A8 [87]. […] An inoculum suspension (100 μL) was added to each well (final well volume = 200 μL). One growth control well (containing medium, inoculum, and the same amount of DMSO as used for each compound) and one sterility control well (sample, medium, and sterile water instead of inoculum) were included for each fungus tested. Microtiter plates were incubated in a dark, humid chamber at 30 °C for the time necessary for each fungus. Amphotericin B, Terbinafine, Fluconazole and Itraconazole were used as a positive control. The tests were performed in triplicate.

[5] = test system: Cryptococcus neoformans (ATCC 32264); assay: Antifungal broth microdilution (CLSI); assay type: cell-based; conditions: ATCC32264; Cn: Cryptococcus neoformans
Method: as §1

Compound | activity at 10 µM (60 cancer cell lines) [%] | hemolysis at 24 h, 200 µg/mL [1] [%] | MIC [2] [µg/mL] | other results
COc1cc(/C=C/C(=O)c2ccccc2)ccc1Oc1nc(NCCO)nc(N2CCOCC2)n1 [20a] | 92.1 |  |  | 
Cc1ccc(C2CC(c3ccc(Nc4nc(NCCO)nc(N5CCOCC5)n4)cc3)=Nc3c(N)nc(N)nc3N2)cc1 (stereo not shown) [32b] | 84.5 | 1 | 4 (≈ 6.86 µM) | 
CN(C)c1nc(NCCNS(=O)(=O)c2ccc(C3=Nc4c(N)nc(N)nc4NC(c4ccc(F)cc4)C3)cc2)nc(N2CCOCC2)n1 (stereo not shown) [30f] | 72.8 |  |  | 
COc1ccc(C2CC(c3ccc(S(=O)(=O)NCCNc4nc(Nc5ccc(F)cc5)nc(N(C)C)n4)cc3)=Nc3c(N)nc(N)nc3N2)cc1 (stereo not shown) [31c] | 75.8 | 1.2 | 8 (≈ 11.2 µM) | MIC [3]: 1.2 µg/mL (≈ 1.68 µM)
COc1cc(/C=C/C(=O)c2ccc(C(F)(F)F)cc2)ccc1Oc1nc(Nc2ccc(F)cc2)nc(N(C)C)n1 [21g] | 73.2 |  |  | 
COc1cc(C2CC(c3ccc(Nc4nc(NCCO)nc(N5CCOCC5)n4)cc3)=Nc3c(N)nc(N)nc3N2)cc(OC)c1OC (stereo not shown) [32d] | 99.5 |  | 500 (≈ 759 µM) | 
COc1cc(C=O)ccc1Oc1nc(Nc2ccc(F)cc2)nc(N(C)C)n1 [compound 15] | 64.5 |  | ≥ 500 | 
COc1cc(C2CC(c3ccc(F)cc3)=Nc3c(N)nc(N)nc3N2)ccc1Oc1nc(NCCO)nc(N2CCOCC2)n1 (stereo not shown) [28f] | 98.2 | 2 | 8 (≈ 13 µM) | 
COc1ccc(/C=C/C(=O)c2ccc(S(=O)(=O)NCCNc3nc(N(C)C)nc(N4CCOCC4)n3)cc2)cc1 [23c] | 81.5 | 0 |  | 
COc1ccc(C2CC(c3ccc(Nc4nc(NCCO)nc(Nc5ccc(Cl)cc5)n4)cc3)=Nc3c(N)nc(N)nc3N2)cc1 (stereo not shown) [33c] | 63.3 | 5 | 2 (≈ 3.13 µM) | 
Nc1nc(N)c2c(n1)NC(c1ccc(C(F)(F)F)cc1)CC(c1ccc(Nc3nc(NCCO)nc(N4CCOCC4)n3)cc1)=N2 (stereo not shown) [32g] | 64.8 | 2 | 4 (≈ 6.28 µM) | 
CN(C)c1nc(NCCNS(=O)(=O)c2ccc(C3=Nc4c(N)nc(N)nc4NC(c4ccc(Cl)cc4)C3)cc2)nc(N2CCOCC2)n1 (stereo not shown) [30e] | 48.9 | 2.7 |  | 
OC(Cn1cncn1)(Cn1cncn1)c1ccc(F)cc1F [Fluconazole, reference compound] |  |  |  | MIC [4]: 0.03 µg/mL (≈ 0.098 µM); MIC [5]: 0.25 µg/mL (≈ 0.816 µM)
COc1ccc(C2CC(c3ccc(S(=O)(=O)NCCNc4nc(N(C)C)nc(N5CCOCC5)n4)cc3)=Nc3c(N)nc(N)nc3N2)cc1 (stereo not shown) [30c] | 84.3 |  |  | 
Nc1nc(N)c2c(n1)NC(c1ccccc1)CC(c1ccc(Nc3nc(NCCO)nc(N4CCOCC4)n3)cc1)=N2 (stereo not shown) [32a] | 87.2 | 2 | 8 (≈ 14.1 µM) | 
COc1cc(C2CC(c3ccc(Cl)cc3)=Nc3c(N)nc(N)nc3N2)ccc1Oc1nc(NCCO)nc(N2CCOCC2)n1 (stereo not shown) [28e] | 70.2 | 5 | 8 (≈ 12.6 µM) | 
COc1cc(C=O)ccc1Oc1nc(NCCO)nc(N2CCOCC2)n1 [compound 14] | 102 |  |  | 
COc1cc(C2CC(c3ccc(Nc4nc(NCCO)nc(Nc5ccc(Cl)cc5)n4)cc3)=Nc3c(N)nc(N)nc3N2)cc(OC)c1OC (stereo not shown) [33d] | 65.3 |  |  | 
COc1ccc(C2=Nc3c(N)nc(N)nc3NC(c3ccc(Oc4nc(NCCO)nc(N5CCOCC5)n4)c(OC)c3)C2)cc1 (stereo not shown) [28c] | 102 | 7 | 0.5 (≈ 0.794 µM) | 
CCC(C)n1ncn(-c2ccc(N3CCN(c4ccc(OCC5COC(Cn6cncn6)(c6ccc(Cl)cc6Cl)O5)cc4)CC3)cc2)c1=O (stereo not shown) [Itraconazole, reference compound] |  |  |  | MIC [4]: 0.5 µg/mL (≈ 0.709 µM)
COc1cc(/C=C/C(=O)c2ccc(C(F)(F)F)cc2)ccc1Oc1nc(NCCO)nc(N2CCOCC2)n1 [20g] | 77.7 |  |  | 
